# ChEMBL document CHEMBL5512655, “Discovery of indolylacryloyl-derived oxacins as novel potential broad-spectrum antibacterial candidates” (Eur J Med Chem, 2024)
# Activity calls are given as the source filed them. The calls are words filed in the database; no cut-off is given here.
# Legend:
# [1] = system: Escherichia coli; assay: Anti-biofilm effect in Escherichia coli assessed as biofilm destruction by measuring reduced biofilm content at MIC; format: functional
# [2] = system: Staphylococcus aureus; assay: Anti-biofilm effect in methicillin-resistant Staphylococcus aureus N315 assessed as biofilm destruction by measuring reduced biofilm content at MIC; format: functional
# [3] = system: Escherichia coli; assay: Antibacterial activity against Escherichia coli assessed as resistance development by measuring compound concentration required to inhibit measured after 18 generations; format: functional
# [4] = system: Staphylococcus aureus; assay: Potency index, ratio of norfloxacin MIC to test compound MIC for antibacterial activity against Staphylococcus aureus ATCC 29213 assessed as inhibition of bacterial growth measured after 24 hrs incubation; format: functional
# [5] = system: Staphylococcus aureus; assay: Antibacterial activity against methicillin-resistant Staphylococcus aureus N315 assessed as resistance development measured after 18 generations; format: functional, organism-based
# [6] = system: Escherichia coli; assay: Antibacterial activity against Escherichia coli assessed as resistance development measured after 18 generations; format: functional, organism-based
# [7] = system: Staphylococcus aureus; assay: Potency index, ratio of norfloxacin MIC to test compound MIC for antibacterial activity against Staphylococcus aureus ATCC 25923 assessed as inhibition of bacterial growth measured after 24 hrs incubation; format: functional
# [8] = Cytotoxicity against HUVEC cells assessed as cell viability at 64 ug/ml measured after 24 hrs relative to control; format: toxicity, cell-based; conditions: human, at 64 µg/mL, read-out: Activity
# [9] = system: Staphylococcus aureus; assay: Potency index, ratio of norfloxacin MIC to test compound MIC for antibacterial activity against Staphylococcus aureus assessed as inhibition of bacterial growth measured after 24 hrs incubation; format: functional
# [10] = system: Escherichia coli; assay: Induction of ROS production in Escherichia coli assessed as fluorescence intensity at 2 times of MIC by DCFH-DA (dichlorofluorescin diacetate) probe based assay; format: functional
# [11] = system: Klebsiella pneumoniae; assay: Antibacterial activity against Klebsiella pneumonia assessed as inhibition of bacterial growth measured after 24 hrs incubation; format: functional
# [12] = system: Escherichia coli; assay: Antibacterial activity against Escherichia coli ATCC 25922 assessed as inhibition of bacterial growth measured after 24 hrs incubation; format: functional
# [13] = system: Staphylococcus aureus; assay: Induction of lipid peroxidation in methicillin-resistant Staphylococcus aureus N315 assessed as malondialdehyde (MDA) level production; format: functional, organism-based
# [14] = system: Cell membrane; assay: Induction of cell membrane damage in methicillin-resistant Staphylococcus aureus N315 assessed as increase in density of red fluorescence at 4 times of MIC by Calcein-AM/PI dual staining based fluorescence microscopy; format: cell membranes
# [15] = system: Escherichia coli; assay: Antibacterial activity against Escherichia coli assessed as reduction in bacterial burden at 2 to 4 times of MIC measured within 5 hrs by time-dependent kinetics assay; format: functional, organism-based
# [16] = system: Cell membrane; assay: Induction of cytoplasmic membrane integrity loss in methicillin-resistant Staphylococcus aureus N315 assessed as increase in fluorescence intensity at 0.5 to 6 times of MIC by Propidium iodide method; format: cell membranes
# [17] = system: Escherichia coli; assay: Induction of ROS production in Escherichia coli assessed as fluorescence intensity by DCFH-DA (dichlorofluorescin diacetate) probe based assay; format: functional, organism-based
# [18] = system: Calf thymus DNA; assay: Binding affinity to calf thymus DNA assessed as hypochromism by spectroscopic analysis; format: nucleic-acid assay; conditions: Bos taurus
# [19] = system: Calf thymus DNA; assay: Binding affinity to calf thymus DNA by acridine orange staining based competitive binding assay; format: nucleic-acid assay; conditions: Bos taurus
# [20] = system: Pseudomonas aeruginosa; assay: Antibacterial activity against Pseudomonas aeruginosa ATCC 27853 assessed as inhibition of bacterial growth measured after 24 hrs incubation; format: functional
# [21] = Hemolytic activity in human red blood cells assessed as hemolysis rate at 64 ug/ml relative to control; format: toxicity, cell-based, Erythrocyte; conditions: red blood cells (erythrocytes), at 64 µg/mL, read-out: Activity
# [22] = system: Staphylococcus aureus; assay: Antibacterial activity against Staphylococcus aureus ATCC 29213 assessed as inhibition of bacterial growth measured after 24 hrs incubation; format: functional
# [23] = system: Escherichia coli; assay: Reduction in metabolic activity in Escherichia coli at 6 times of MIC by Alamar Blue assay relative to control; format: functional; parameters: scale not given: the % may be the effect or the level left
# [24] = system: Staphylococcus aureus; assay: Antibacterial activity against Staphylococcus aureus assessed as inhibition of bacterial growth measured after 24 hrs incubation; format: functional
# [25] = system: Escherichia coli; assay: Induction of lipid peroxidation in Escherichia coli assessed as malondialdehyde (MDA) level production; format: functional, organism-based
# [26] = system: Escherichia coli; assay: Antibacterial activity against Escherichia coli assessed as resistance development measured after 11 generations; format: functional, organism-based
# [27] = system: Escherichia coli; assay: Reduction in metabolic activity in Escherichia coli by Alamar Blue assay; format: functional, organism-based
# [28] = system: Escherichia coli; assay: Anti-biofilm effect in Escherichia coli assessed as inhibition of biofilm formation by measuring reduction in exo-polysaccharide content at 6 times of MIC relative to control; format: functional
# [29] = system: Escherichia coli; assay: Antibacterial activity against Escherichia coli assessed as inhibition of bacterial growth measured after 24 hrs incubation; format: functional
# [30] = system: Staphylococcus aureus; assay: Antibacterial activity against methicillin-resistant Staphylococcus aureus N315 assessed as resistance development by measuring compound concentration required to inhibit measured after 18 generations; format: functional
# [31] = system: Escherichia coli; assay: Antibacterial activity against Escherichia coli assessed as reduction in bacterial burden at 2 to 4 times of MIC measured upto 7 hrs by time-dependent kinetics assay; format: functional, organism-based
# [32] = Cytotoxicity against human L02 cells assessed as cell viability at 16 ug/ml measured after 24 hrs relative to control; format: toxicity, cell-based; conditions: at 16 µg/mL, read-out: Activity
# [33] = system: Escherichia coli; assay: Potency index, ratio of norfloxacin MIC to test compound MIC for antibacterial activity against Escherichia coli assessed as inhibition of bacterial growth measured after 24 hrs incubation; format: functional
# [34] = system: Staphylococcus aureus; assay: Reduction in metabolic activity in methicillin-resistant Staphylococcus aureus N315 at 6 times of MIC by Alamar Blue assay relative to control; format: functional; parameters: scale not given: the % may be the effect or the level left
# [35] = system: Pseudomonas aeruginosa; assay: Antibacterial activity against Pseudomonas aeruginosa assessed as inhibition of bacterial growth measured after 24 hrs incubation; format: functional
# [36] = system: Cell membrane; assay: Induction of cell membrane damage in Escherichia coli assessed as increase in density of red fluorescence at 4 times of MIC by Calcein-AM/PI dual staining based fluorescence microscopy; format: cell membranes
# [37] = system: Staphylococcus aureus; assay: Antibacterial activity against Staphylococcus aureus ATCC 25923 assessed as inhibition of bacterial growth measured after 24 hrs incubation; format: functional
# [38] = system: Staphylococcus aureus; assay: Antibacterial activity against methicillin-resistant Staphylococcus aureus N315 assessed as reduction in bacterial burden at 2 to 4 times of MIC measured upto 7 hrs by time-dependent kinetics assay; format: functional, organism-based
# [39] = system: Staphylococcus aureus; assay: Antibacterial activity against methicillin-resistant Staphylococcus aureus N315 assessed as resistance development measured after 10 generations; format: functional, organism-based
# [40] = system: Staphylococcus aureus; assay: Anti-biofilm effect in methicillin-resistant Staphylococcus aureus N315 assessed as inhibition of biofilm formation by measuring reduction in exo-polysaccharide content at 6 times of MIC relative to control; format: functional
# [41] = system: Escherichia coli; assay: Induction of lipid peroxidation in Escherichia coli assessed as malondialdehyde (MDA) level production at 4 time of MIC; format: functional, organism-based
# [42] = system: Staphylococcus aureus; assay: Induction of lipid peroxidation in methicillin-resistant Staphylococcus aureus N315 assessed as malondialdehyde (MDA) level production at 4 time of MIC; format: functional, organism-based
# [43] = system: Enterococcus faecalis; assay: Potency index, ratio of norfloxacin MIC to test compound MIC for antibacterial activity against Enterococcus faecalis assessed as inhibition of bacterial growth measured after 24 hrs incubation; format: functional
# [44] = system: Staphylococcus aureus; assay: Induction of ROS production in methicillin-resistant Staphylococcus aureus N315 assessed as fluorescence intensity at 2 times of MIC by DCFH-DA (dichlorofluorescin diacetate) probe based assay
# [45] = system: Staphylococcus aureus; assay: Reduction in metabolic activity in methicillin-resistant Staphylococcus aureus N315 by Alamar Blue assay; format: functional, organism-based
structure (smiles),measurement,setting,value
CCOC(=O)Cn1cc(/C=C(\C#N)C(=O)N2CCN(c3cc4c(cc3F)c(=O)c(C(=O)O)cn4CC)CC2)c2ccccc21,inhibition (INH),[1],82.7%
same,inhibition (INH),[2],68.8%
same,MIC,[3],32 µg/mL
same,Ratio,[4],1
same,Activity,[5],Active
same,Activity,[6],Active
same,Ratio,[7],1
same,"viability at 24 h, 64 ug/ml",[8],85%
same,Ratio,[9],1
same,Activity,[10],>50%
same,MIC,[11],0.5 µg/mL
same,MIC,[12],0.5 µg/mL
same,Activity,[13],Dose-Dependent Effect
same,Activity,[14],Active
same,Activity,[15],Active
same,Activity,[16],Active
same,Activity,[17],Dose-Dependent Effect
same,Activity,[18],Active
same,Activity,[19],Active
same,MIC,[20],0.5 µg/mL
same,hemolysis at 64 ug/ml,[21],< 5%
same,MIC,[22],0.25 µg/mL
same,Activity,[23],>50%
same,MIC,[24],0.25 µg/mL
same,Activity,[25],Dose-Dependent Effect
same,Activity,[26],inactive
same,Activity,[27],Dose-Dependent Effect
same,inhibition (INH),[28],<50%
same,MIC,[29],0.25 µg/mL
same,MIC,[30],64 µg/mL
same,Activity,[31],Active
same,"viability at 24 h, 16 ug/ml",[32],80%
same,Ratio,[33],1
same,Activity,[34],>50%
same,MIC,[35],0.5 µg/mL
same,Activity,[36],Active
same,MIC,[37],0.25 µg/mL
same,Activity,[38],Active
same,Activity,[39],inactive
same,inhibition (INH),[40],<50%
same,Activity,[41],Active
same,Activity,[42],Active
same,Ratio,[43],1
same,Activity,[44],>50%
same,Activity,[45],Dose-Dependent Effect
